Molecules are shown by their SMILES. Active and inactive are the calls of the source. The calls are words filed in the database; no cut-off is given here.

Assay [1] deals with T1, Estrogen receptor (Homo sapiens) (UniProt P03372).
T1 sequence (whole entry): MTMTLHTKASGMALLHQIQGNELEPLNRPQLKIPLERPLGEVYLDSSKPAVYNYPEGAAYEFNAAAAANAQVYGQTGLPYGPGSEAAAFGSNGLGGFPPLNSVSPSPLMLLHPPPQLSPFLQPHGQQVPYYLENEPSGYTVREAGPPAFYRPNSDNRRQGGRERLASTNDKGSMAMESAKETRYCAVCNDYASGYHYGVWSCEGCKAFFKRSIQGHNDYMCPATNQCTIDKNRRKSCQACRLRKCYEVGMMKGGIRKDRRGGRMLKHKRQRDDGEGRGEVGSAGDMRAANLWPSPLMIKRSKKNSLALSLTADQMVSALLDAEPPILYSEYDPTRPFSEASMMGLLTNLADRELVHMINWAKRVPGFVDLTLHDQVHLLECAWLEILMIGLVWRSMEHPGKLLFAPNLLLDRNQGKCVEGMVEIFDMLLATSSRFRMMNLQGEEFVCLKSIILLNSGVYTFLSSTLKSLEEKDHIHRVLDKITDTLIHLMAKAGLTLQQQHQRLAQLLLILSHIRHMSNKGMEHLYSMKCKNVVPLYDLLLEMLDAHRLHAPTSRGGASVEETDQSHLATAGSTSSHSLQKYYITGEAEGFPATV
Nature of the assay: Binding affinity to human estrogen receptor expressed in HEK293 cells by scintillation counting based radioligand competition binding assay. The assay is classed as cell-based.

The target of the next assay is T2, Androgen receptor (Homo sapiens, UniProt P10275).
T2 sequence (P10275 whole entry): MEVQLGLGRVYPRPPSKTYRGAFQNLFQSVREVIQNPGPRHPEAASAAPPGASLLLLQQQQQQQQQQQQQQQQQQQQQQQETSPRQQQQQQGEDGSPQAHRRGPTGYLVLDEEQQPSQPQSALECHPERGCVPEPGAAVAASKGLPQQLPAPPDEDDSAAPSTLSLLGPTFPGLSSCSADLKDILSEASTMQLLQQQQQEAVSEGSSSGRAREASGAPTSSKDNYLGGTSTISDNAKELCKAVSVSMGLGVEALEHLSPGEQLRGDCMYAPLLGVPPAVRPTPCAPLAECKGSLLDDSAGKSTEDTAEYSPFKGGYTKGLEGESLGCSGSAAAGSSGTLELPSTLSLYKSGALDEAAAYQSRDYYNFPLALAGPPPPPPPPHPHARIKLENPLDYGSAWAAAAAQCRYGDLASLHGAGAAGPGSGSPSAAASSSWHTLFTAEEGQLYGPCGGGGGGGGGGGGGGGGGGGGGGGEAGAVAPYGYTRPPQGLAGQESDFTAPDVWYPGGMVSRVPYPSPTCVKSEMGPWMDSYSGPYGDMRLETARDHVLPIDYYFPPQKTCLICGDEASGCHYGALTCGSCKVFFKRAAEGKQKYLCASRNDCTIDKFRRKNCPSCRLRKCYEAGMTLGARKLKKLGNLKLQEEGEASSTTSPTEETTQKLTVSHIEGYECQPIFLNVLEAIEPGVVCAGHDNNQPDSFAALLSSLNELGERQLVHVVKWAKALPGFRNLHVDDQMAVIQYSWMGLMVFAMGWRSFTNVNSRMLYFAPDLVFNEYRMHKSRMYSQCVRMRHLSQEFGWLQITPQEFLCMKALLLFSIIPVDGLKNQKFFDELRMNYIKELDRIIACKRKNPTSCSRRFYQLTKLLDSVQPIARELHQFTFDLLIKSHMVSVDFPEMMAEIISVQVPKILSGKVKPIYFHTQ
Nature of the assay: biochemical.

A further assay deals with T3, Progesterone receptor (Homo sapiens, UniProt P06401).
T3 sequence (P06401 whole entry): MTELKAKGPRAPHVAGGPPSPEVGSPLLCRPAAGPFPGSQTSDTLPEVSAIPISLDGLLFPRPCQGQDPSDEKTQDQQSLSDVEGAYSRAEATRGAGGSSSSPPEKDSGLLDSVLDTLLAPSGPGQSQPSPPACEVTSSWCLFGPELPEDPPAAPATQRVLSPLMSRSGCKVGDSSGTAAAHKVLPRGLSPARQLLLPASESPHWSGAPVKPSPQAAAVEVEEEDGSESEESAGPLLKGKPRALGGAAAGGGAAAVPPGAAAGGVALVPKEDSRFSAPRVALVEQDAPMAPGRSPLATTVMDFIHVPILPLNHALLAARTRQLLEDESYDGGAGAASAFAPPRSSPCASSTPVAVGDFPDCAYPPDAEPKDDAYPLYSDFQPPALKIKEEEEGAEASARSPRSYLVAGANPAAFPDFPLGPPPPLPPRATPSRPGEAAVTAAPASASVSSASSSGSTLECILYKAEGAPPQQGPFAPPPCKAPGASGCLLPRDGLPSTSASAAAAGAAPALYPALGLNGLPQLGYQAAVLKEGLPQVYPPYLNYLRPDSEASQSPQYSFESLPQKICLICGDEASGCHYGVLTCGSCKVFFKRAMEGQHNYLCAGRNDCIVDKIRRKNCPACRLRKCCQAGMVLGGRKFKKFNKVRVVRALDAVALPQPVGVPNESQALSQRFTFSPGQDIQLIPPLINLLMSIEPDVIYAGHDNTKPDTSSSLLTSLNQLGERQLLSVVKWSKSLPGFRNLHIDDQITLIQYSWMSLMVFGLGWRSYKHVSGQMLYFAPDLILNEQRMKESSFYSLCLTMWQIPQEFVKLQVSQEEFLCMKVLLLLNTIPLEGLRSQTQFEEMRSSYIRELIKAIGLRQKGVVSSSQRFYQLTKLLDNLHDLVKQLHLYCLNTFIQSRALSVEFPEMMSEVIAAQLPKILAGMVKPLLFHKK
Nature of the assay: Displacement of [3H]-methyltrienolone from human progesterone receptor expressed in HEK293 cells by scintillation counting based radioligand competition binding assay.

Description for Androgen receptor: Displacement of [3H]-methyltrienolone from human androgen receptor expressed in HEK293 cells by scintillation counting based radioligand competition binding assay

Turning to `CS(=O)(=O)Nc1cccc2cc[nH]c12`, in assay [1], the outcome was inactive. The Ki came to 0.355 µM at Androgen receptor and 0.104 µM on Progesterone receptor.
With `CS(=O)(=O)Nc1cccc2c(-c3cccc(Cl)c3)c[nH]c12`, the outcome in assay [1] was inactive. Moreover, the Ki on Androgen receptor amounted to 0.091 µM; on Progesterone receptor it was 0.00551 µM.
In the case of `COc1cc(NS(C)(=O)=O)c2[nH]c(C)c(-c3cc(F)ccc3OC)c2c1`, the outcome in assay [1] was inactive. The results for the Ki at Androgen receptor and on Progesterone receptor were 1.12 µM and 0.0223 µM, respectively.
The matching figures for `COc1ccc(F)cc1-c1c(-c2ccccc2)[nH]c2c(NS(C)(=O)=O)cccc12`: “inactive”, 0.905 µM and 0.0442 µM.
The matching figures for `COc1ccc(Cl)cc1-c1c[nH]c2c(NS(C)(=O)=O)cccc12`: “inactive”, 0.697 µM and 0.233 µM.
Taken in the same sequence, the figures for `CS(=O)(=O)Nc1cccc2c(-c3ccc(F)cc3)c[nH]c12` were “inactive”, 0.496 µM and 0.029 µM.
On to `COc1cc(F)ccc1-c1c(CN(C)Cc2ccccc2)[nH]c2c(NS(C)(=O)=O)cc(C(C)(C)C)cc12`, for which, in assay [1], the result was inactive. The Ki was 0.231 µM at Androgen receptor and 0.253 µM at Progesterone receptor.
The matching figures for `COc1cc(F)ccc1-c1c(Cc2ccccc2)[nH]c2c(NS(C)(=O)=O)cc(C(C)C)cc12`: “inactive”, 0.684 µM and 4 µM.
The matching figures for `COc1cc(F)ccc1-c1c(CN(C)Cc2ccccc2)[nH]c2c(N)cc(F)cc12`: “inactive”, 4.14 µM and 4.19 µM.
Taken in the same sequence, the figures for `COc1cc(F)ccc1-c1c(C)[nH]c2c(NS(C)(=O)=O)cc(F)cc12` were “inactive”, 1.13 µM and 0.0205 µM.
As for `COc1cc(NS(C)(=O)=O)c2[nH]c(C)c(-c3ccccc3)c2c1`, the result in assay [1] was inactive. Further, the values for the Ki on Androgen receptor and at Progesterone receptor were 4.06 µM and 3.94 µM, respectively.
Taken in the same sequence, the figures for `COc1ccccc1-c1c[nH]c2c(NS(C)(=O)=O)cccc12` were “inactive”, 0.401 µM and 0.086 µM.
For `COc1cc(F)ccc1-c1c(CN(C)Cc2ccccc2)[nH]c2c(NS(C)(=O)=O)cc(C(C)C)cc12`, the result in assay [1] was inactive. Besides, the inhibitory constant (Ki) at Androgen receptor came out at 0.232 µM; at Progesterone receptor, 0.0642 µM.

The values are drawn from ChEMBL document CHEMBL3603837, “Indole Glucocorticoid Receptor Antagonists Active in a Model of Dyslipidemia Act via a Unique Association with an Agonist Binding Site” (J Med Chem, 2015).
